Values after ≈ are worked out from the molar mass of the structure shown. Active and inactive are the calls of the source. No cut-off for these calls is given here.
Columns and labels:
[1] = test system: Ferriprotoporphyrin IX; test: Binding affinity to Fe(3)PP9 solution assessed as ferriprotoporphyrin 9 complex formation by measuring compound concentration causing pink precipitate formation at <=5500 uM
[2] = test system: Hemozoin; test: Inhibition of beta-hematin in water/NP40/DMSO solution incubated for 5 to 6hrs by detergent-mediated pyridine-ferrichrome method
[3] = test system: Plasmodium falciparum; test: Antimalarial activity against CQ-sensitive Plasmodium falciparum D10 infected in human type O+ erythrocytes assessed as growth inhibition up to 249 uM incubated for 48 hrs by LDH assay; type: functional, organism-based
[4] = test system: Plasmodium falciparum; test: Antimalarial activity against CQ-sensitive Plasmodium falciparum NF54 infected in human type O+ erythrocytes assessed as growth inhibition up to 249 uM incubated for 48 hrs by LDH assay; type: functional, organism-based
[5] = test system: Ferriprotoporphyrin IX; test: Binding affinity to Fe(3)PP9 solution assessed as ferriprotoporphyrin 9 complex formation by measuring pink precipitate formation at <=5500 uM
[6] = test system: Plasmodium falciparum; test: Antimalarial activity against CQ-sensitive Plasmodium falciparum NF54 infected in human type O+ erythrocytes assessed as growth inhibition incubated for 48 hrs by LDH assay; type: functional, organism-based; conditions: NF54, 48 h
[7] = test system: Ferriprotoporphyrin IX
Description: Binding affinity to Fe(3)PP9 in hematin solution at pH 7.5 by titration-based UV-vis spectrophotometrical analysis

[8] = test system: Hemozoin; test: Inhibition of beta-hematin
[9] = test system: Plasmodium falciparum; test: Antimalarial activity against CQ-sensitive Plasmodium falciparum D10 infected in human type O+ erythrocytes assessed as growth inhibition incubated for 48 hrs by LDH assay; type: functional, organism-based; conditions: D10, 48 h
[10] = Kinetic solubility of compound at pH 2 after 2 hrs by shake flask assay; type: physicochemical; conditions: buffer, read-out: Kinetic_solubility
[11] = Kinetic solubility of compound in at pH 6.5 after 2 hrs by shake flask assay; type: physicochemical; conditions: buffer, read-out: Kinetic_solubility
[12] = Kinetic solubility of compound FaSSIF at pH 6.5 after 2 hrs by shake flask assay; type: physicochemical; conditions: read-out: Kinetic_solubility
[13] = Half life in human liver microsomes at 0.1 uM in presence of NADPH by LC-MS/MS analysis; type: ADME, Microsome
[14] = Half life in rat liver microsomes at 0.1 uM in presence of NADPH by LC-MS/MS analysis; type: ADME, Microsome
[15] = Half life in mouse liver microsomes at 0.1 uM in presence of NADPH by LC-MS/MS analysis; type: ADME, Microsome
[16] = Clearance in human liver microsomes assessed per mg of protein at 0.1 uM by LC-MS/MS analysis; type: ADME, Microsome; conditions: read-out: CLH
[17] = Clearance in rat liver microsomes assessed per mg of protein at 0.1 uM by LC-MS/MS analysis; type: ADME, Microsome; conditions: read-out: CLH
[18] = Clearance in mouse liver microsomes assessed per mg of protein at 0.1 uM by LC-MS/MS analysis; type: ADME, Microsome; conditions: read-out: CLH
[19] = test system: CHO; test: Cytotoxicity against CHO cells by MTT assay; type: cell-based; conditions: Cricetulus griseus
[20] = test system: Hemozoin; test: Inhibition of beta-hematin incubated for 6 hrs by NP40 detergent-mediated assay
[21] = test system: Plasmodium falciparum; test: Antimalarial activity against Plasmodium falciparum D6 infected in red blood cells assessed as growth inhibition by SYBR green1 fluorescence-based assay; type: functional, organism-based
[22] = test system: Hemozoin; test: Inhibition of hemozoin formation in CQ-sensitive Plasmodium falciparum D10 infected in human type O+ erythrocytes assessed as increase in free heme at 0.5 to 4 times beta-hematin IC50 incubated for 32 hrs by cell fractionation assay; type: cell-based; conditions: Erythrocyte
[23] = test system: Hemozoin; test: Inhibition of hemozoin formation in CQ-sensitive Plasmodium falciparum D10 infected in human type O+ erythrocytes assessed as decrease in hemozoin formation at 0.5 to 4 times beta-hematin IC50 incubated for 32 hrs by cell fractionation assay; type: cell-based; conditions: Erythrocyte
[24] = test system: Hemozoin; test: Inhibition of hemozoin formation in CQ-sensitive Plasmodium falciparum D10 infected in human type O+ erythrocytes assessed as free heme level at beta-hematin IC50 incubated for 32 hrs by cell fractionation assay (reference value: 7%); type: cell-based; set-up: scale not given: the % may be the effect or the level left; conditions: Erythrocyte
[25] = test system: Hemozoin; test: Inhibition of hemozoin formation in CQ-sensitive Plasmodium falciparum D10 infected in human type O+ erythrocytes assessed as hemozoin level at beta-hematin IC50 incubated for 32 hrs by cell fractionation assay (reference value: 89%); type: cell-based; set-up: scale not given: the % may be the effect or the level left; conditions: Erythrocyte

Compound	Activity [1]	IC50 [2]	IC50 [6]	further results
O=C(Nc1ccncc1)c1ccc(Cl)c(Cl)c1	700 to 1300 µM			
O=C(Nc1ccccc1)c1cc(C(=O)Nc2nc3ccccc3[nH]2)cc([N+](=O)[O-])c1		68 µM		Activity [3]: inactive; Activity [4]: inactive
COc1ccc(C(=O)Nc2ccncc2)cc1	inactive	> 5500 µM		Activity [5]: inactive
O=C(Nc1ccncc1)c1cccc(C(=O)Nc2ccncc2)c1		507 µM	9 µM	
O=C(Nc1ccncc1)c1ccc(Cl)cc1	4500 to 5500 µM			
O=C(Nc1ccncc1)c1ccc([N+](=O)[O-])cc1	inactive	> 5500 µM		Activity [5]: inactive
CC(C)(C)c1cc(C(=O)Nc2ccncc2)cc(C(=O)Nc2ccncc2)c1		13.3 µM	1.6 µM	
Nc1ccnc2cc(Cl)ccc12				log K [7]: 4.43
Cc1ccc(C(=O)Nc2ccncc2)cc1	inactive	> 5500 µM		Activity [5]: inactive
O=C(Nc1ccncc1)c1cccc(C(F)(F)F)c1	1300 to 2300 µM			
O=C(Nc1ccccc1)c1cccc(C(=O)Nc2ccccc2)c1		> 1000 µM	> 314 µM	
O=C(Nc1ccncc1)c1cccc(Cl)c1	1300 to 2300 µM			
O=C(Nc1ccccc1)c1cc(C(=O)Nc2ccccc2)cc([N+](=O)[O-])c1		7 µM	1.4 µM	
CCN(CC)Cc1cc(Nc2ccnc3cc(Cl)ccc23)ccc1O [AMODIAQUINE]				IC50 [8]: 21 µM
O=C(Nc1ccncc1)c1cc(C(=O)Nc2ccncc2)cc([N+](=O)[O-])c1		4.3 µM	0.7 µM	IC50 [9]: 0.9 µM; solubility kinetic at 2 h [10]: 200 µM (≈ 72.6 µg/mL); solubility kinetic at 2 h [11]: < 5 µM; solubility kinetic at 2 h [12]: 13 µM (≈ 4.72 µg/mL); half-life at 0.1 µM [13]: > 2.5 h; half-life at 0.1 µM [14]: > 2.5 h; half-life at 0.1 µM [15]: > 2.5 h; microsomal CLint at 0.1 µM [16]: < 11.6 µL/min/mg; microsomal CLint at 0.1 µM [17]: < 11.6 µL/min/mg; microsomal CLint at 0.1 µM [18]: < 11.6 µL/min/mg; IC50 [19]: > 275 µM; IC50 [20]: 5.86 µM; IC50 [21]: 0.19 µM
CC(C)(C)c1cc(C(=O)Nc2ccccc2)cc(C(=O)Nc2ccccc2)c1		> 1000 µM	8.1 µM	inhibition [22]: inactive; inhibition [23]: inactive
O=C(Nc1ccncc1)c1cccc(C(=O)Nc2ccncc2)n1		260 µM	> 315 µM	
O=C(Nc1ccccc1)c1ccccc1[N+](=O)[O-]		> 1000 µM	> 41.3 µM	
CN(C)Cc1ccc(NC(=O)c2cc(C(=O)Nc3ccc(CN(C)C)cc3)cc([N+](=O)[O-])c2)cc1		7.9 µM	1.5 µM	Activity [24]: 41%; Activity [25]: 53%

From ChEMBL document CHEMBL4428041, “Identification and SAR Evaluation of Hemozoin-Inhibiting Benzamides Active against Plasmodium falciparum” (J Med Chem, 2016)
